Read-outs that look alike come from different tables or passages of the source.
Legend:
[1] = format: physicochemical; conditions: classified from Log P
[2] = system: Argentine ant, Linepithema humile; assay: Knockdown/mortality of ant workers under continuous exposure on treated glazed tile; conditions: glazed tile
How it was run: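 0.5% AI imidacloprid in acetone, alone or with 0.1, 1.0 or 5.0% additive (benzenepropanoic acid, oleic acid, methyl oleate, methyl linoleate, methyl palmitate or BHA), 1 ml dried overnight on glazed tile (~161 cm^2). Ten workers confined under continuous exposure, water from 3 h; knockdown/mortality scored at intervals and 24 h; ≥3 replicates.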

[3] = system: Blattella germanica (males, susceptible); assay: Efficacy of EC formulations on glazed/unglazed tiles, continuous exposure; format: in vivo; conditions: EC formulation
Protocol: All surfaces were provided with talcum-coated glass rings (diameter 9.5 cm, height 5.5 cm) one day later.
The test insects were anesthetized with CO2, 20 individuals were placed onto the treated surfaces and the glass ring was covered with wire gauze ring. […]
Each test consisted of at least one replicate and any additional replicates are noted. […]
Test Insects: Culex quinquefasciatus (adults, susceptible) (3 minutes exposure time according to USDA Petri Dish Method), Musca domestica (adults, susceptible and resistant), Blattella germanica (males, susceptible) (both: continuous exposure time)
Formulations: Insecticide with or without 10% Compound A (as EC), to be diluted with water (1 part formulation+9 parts water)
Application: 1 ml of the diluted formulations was applied by pipette onto glazed tiles (15×15 cm)
(§1) Evaluation: Knock down after 3, 9 (mosquitoes only), 15, and 30 minutes, 1, 2, 3, 4 and 24 hours (mortality)

[4] = system: Cimex lectularius (adults); assay: Efficacy on glazed tiles (acetone solutions or EC formulations), continuous exposure; format: in vivo; conditions: for mortality at 10 mg/m2 / mortality at 50 mg/m2: Cimex lectularius, read-out: % KD and Mortality
Protocol: Test Insects: Culex quinquefasciatus (adults) (3 minutes exposure time according to USDA Petri Dish Method), Musca domestica (adults), susceptible and resistant strain, Blattella germanica (males), Cimex lectularius (adults) (all: continuous exposure time)
Application: The EC formulation (diluted with water 1:9) were applied as 0.85 ml solutions onto glazed tiles (15 cm×15 cm)
Evaluation: Knock down after 15, and 30 minutes, 1, 2, 3, 4, 6 and 24 hours (mortality)
Test Insects: Culex quinquefasciatus (adults) (3 minutes exposure time according to USDA Petri Dish Method), Cimex lectularius (adults), Acheta domesticus (middle nymphs) (both: continuous exposure time)
Application: The active ingredients were applied as 1 ml acetone solutions onto glazed tiles (15 cm×15 cm)
as §1
Test Insects: Culex quinquefasciatus (adults) (3 minutes exposure time according to USDA Petri Dish Method), Cimex lectularius (adults), (continuous exposure time)
Test Insects: Cimex lectularius, Culex quinquefasciatus, Musca domestica (all adults, susceptible strains)
Application: The active ingredients were applied as 1 ml acetone solutions onto glazed tiles (15 cm×15 cm), continuous exposure time

[5] = Table 57, Argentine ant, continuous exposure
[6] = 0.02% = 10 mg Ethiprole/m^2 on glazed tiles
[7] = 15′, on tiles, insecticide alone (imidacloprid 50 mg/m^2, Bendiocarb 50 mg/m^2, Ethiprole 10 mg/m^2, DTM 1 mg/m^2), no Compound A
[8] = 1 h, on tiles, insecticide alone (imidacloprid 50 mg/m^2, Bendiocarb 50 mg/m^2, Ethiprole 10 mg/m^2, DTM 1 mg/m^2), no Compound A
[9] = 2 h, on tiles, insecticide alone (imidacloprid 50 mg/m^2, Bendiocarb 50 mg/m^2, Ethiprole 10 mg/m^2, DTM 1 mg/m^2), no Compound A
[10] = 3 h, on tiles, insecticide alone (imidacloprid 50 mg/m^2, Bendiocarb 50 mg/m^2, Ethiprole 10 mg/m^2, DTM 1 mg/m^2), no Compound A
[11] = 4 h, on tiles, insecticide alone (imidacloprid 50 mg/m^2, Bendiocarb 50 mg/m^2, Ethiprole 10 mg/m^2, DTM 1 mg/m^2), no Compound A
[12] = 6 h, on tiles, insecticide alone (imidacloprid 50 mg/m^2, Bendiocarb 50 mg/m^2, Ethiprole 10 mg/m^2, DTM 1 mg/m^2), no Compound A
[13] = 24 h, on tiles, insecticide alone (imidacloprid 50 mg/m^2, Bendiocarb 50 mg/m^2, Ethiprole 10 mg/m^2, DTM 1 mg/m^2), no Compound A
[14] = 0.1% = 50 mg Bendiocarb/m^2 on glazed tiles
[15] = Table 4 (Ex. 1), continuous exposure
[16] = Table 7 (Ex. 4), continuous exposure
[17] = Table 8 (Ex. 5), continuous exposure
[18] = Table 10 (Ex. 7), continuous exposure
[19] = Table 12 (Ex. 9), continuous exposure
[20] = Table 14 (Ex. 11), continuous exposure
[21] = Table 16 (Ex. 13), continuous exposure
[22] = Table 19 (Ex. 16), continuous exposure
[23] = Table 20 (Ex. 17), continuous exposure
[24] = 0.1% = 50 mg imidacloprid/m^2 on glazed tiles
[25] = Table 46, Trial 1, fipronil/Compound A in acetone
[26] = Table 49, fipronil/adjuvant in acetone
[27] = 2 hr, Table 46, Trial 1, fipronil/Compound A in acetone
[28] = 2 hr, Table 49, fipronil/adjuvant in acetone
[29] = 4 hr, Table 46, Trial 1, fipronil/Compound A in acetone
[30] = Table 27, aqueous deltamethrin/adjuvant
[31] = Table 47, Trial 2, fipronil/Compound A in acetone

SMILES: CC1(C)[C@H](C(=O)O[C@H](C#N)c2cccc(Oc3ccccc3)c2)[C@@H]1C=C(Br)Br [deltamethrin]
- Likelihood of Direct Insect Cuticular Penetration [1]: Fast (classified as “FAST” when it has a Log P value of about >4.0)

SMILES: CC[S+]([O-])c1c(C#N)nn(-c2c(Cl)cc(C(F)(F)F)cc2Cl)c1N (stereo not drawn) [Ethiprole (1%)]
- Average % Mortality after 30 min [2, 5]: 0%
- Average % Mortality after 45 min ([2]; Table 57, Argentine ant, continuous exposure, 45 min): 0%
- Average % Mortality after 60 min [2, 5]: 0%
- Average % Mortality after 15 min ([2]; Table 57, Argentine ant, continuous exposure, adjuvant = Compound A 1% + Compound B 0.5%): 0%

SMILES: CC[S+]([O-])c1c(C#N)nn(-c2c(Cl)cc(C(F)(F)F)cc2Cl)c1N (stereo not drawn) [ethiprole]
- Likelihood of Direct Insect Cuticular Penetration [1]: Fast (classified as “FAST” when it has a Log P value of about >4.0)
- % KD and Mortality 15′ [3, 6]: 0%
- % KD and Mortality 30′ [3, 6]: 0%
- % KD and Mortality 1 h [3, 6]: 0%
- % KD and Mortality 2 h [3, 6]: 80%
- % KD and Mortality 3 h [3, 6]: 100%
- % KD and Mortality 4 h [3, 6]: 100%
- % KD and Mortality 6 h [3, 6]: 100%
- % KD and Mortality 24 h [3, 6]: 100%
- mortality at 10 mg/m2 [4, 7]: 0%
- mortality at 10 mg/m2 [4, 8]: 0%
- mortality at 10 mg/m2 [4, 9]: 10%
- mortality at 10 mg/m2 [4, 10]: 10%
- mortality at 10 mg/m2 [4, 11]: 10%
- mortality at 10 mg/m2 [4, 12]: 70%
- mortality at 10 mg/m2 [4, 13]: 100%

SMILES: CNC(=O)Oc1cccc2c1OC(C)(C)O2 [bendiocarb]
- Likelihood of Direct Insect Cuticular Penetration [1]: Slow (classified as “SLOW” when the compound has a Log P value of about <2.0)
- % KD and Mortality 15′ [3, 14]: 0%
- % KD and Mortality 30′ [3, 14]: 40%
- % KD and Mortality 1 h [3, 14]: 60%
- % KD and Mortality 2 h [3, 14]: 60%
- % KD and Mortality 3 h [3, 14]: 80%
- % KD and Mortality 4 h [3, 14]: 80%
- % KD and Mortality 6 h [3, 14]: 80%
- % KD and Mortality 24 h [3, 14]: 80%
- % KD and Mortality ([4]; 30′, on tiles, insecticide alone (imidacloprid 50 mg/m^2, Bendiocarb 50 mg/m^2, Ethiprole 10 mg/m^2, DTM 1 mg/m^2), no Compound A): 100%
- mortality at 50 mg/m2 ([4]; 1 h): 100%
- mortality at 50 mg/m2 ([4]; 2 h): 100%
- mortality at 50 mg/m2 ([4]; 3 h): 100%
- mortality at 50 mg/m2 ([4]; 4 h): 100%
- mortality at 50 mg/m2 ([4]; 6 h): 100%
- mortality at 50 mg/m2 ([4]; 24 h): 100%
- mortality at 50 mg/m2 [4]: 100%

SMILES: O=[N+]([O-])NC1=NCCN1Cc1ccc(Cl)nc1 [imidacloprid]
- Likelihood of Direct Insect Cuticular Penetration [1]: Slow (classified as “SLOW” when the compound has a Log P value of about <2.0)
- Average % Knockdown & Mortality after 2 hr ([2]; 2 hr, Table 22, imidacloprid/tritylchloride in acetone, continuous exposure): 0%
- Average % Knockdown & Mortality after 2 hr ([2]; 2 hr, Table 25, imidacloprid/dibutyl sebacate (DBS) in acetone): 0%
- Average % Knockdown & Mortality after 4 hr ([2]; 4 hr, Table 25, imidacloprid/dibutyl sebacate (DBS) in acetone): 0%
- Average % Knockdown & Mortality after 5 hr ([2]; 5 hr, Table 22, imidacloprid/tritylchloride in acetone, continuous exposure): 4%
- Average % Knockdown & Mortality after 3 hr [2, 15]: 0%
- Average % Knockdown & Mortality after 7 hr [2, 15]: 0%
- Average % Knockdown & Mortality after 3 hr [2, 16]: 3%
- Average % Knockdown & Mortality after 7 hr [2, 16]: 3%
- Average % Knockdown & Mortality after 15 min [2, 17]: 0%
- Average % Knockdown & Mortality after 4 hr [2, 17]: 7%
- Average % Knockdown & Mortality after 15 min [2, 18]: 0%
- Average % Knockdown & Mortality after 4 hr [2, 18]: 0%
- Average % Knockdown & Mortality after 3 hr [2, 19]: 0%
- Average % Knockdown & Mortality after 7 hr [2, 19]: 0%
- Average % Knockdown & Mortality after 2 hr [2, 20]: 0%
- Average % Knockdown & Mortality after 4 hr [2, 20]: 0%
- Average % Knockdown & Mortality after 2 hr [2, 21]: 14%
- Average % Knockdown & Mortality after 18 hr [2, 21]: 17%
- Average % Knockdown & Mortality after 4 hr [2, 22]: 0%
- Average % Knockdown & Mortality after 6 hr [2, 22]: 7%
- Average % Knockdown & Mortality after 2 hr [2, 23]: 0%
- Average % Knockdown & Mortality after 4 hr [2, 23]: 7%
- % KD and Mortality 15′ [3, 24]: 0%
- % KD and Mortality 30′ [3, 24]: 0%
- % KD and Mortality 1 h [3, 24]: 20%
- % KD and Mortality 2 h [3, 24]: 80%
- % KD and Mortality 3 h [3, 24]: 100%
- % KD and Mortality 4 h [3, 24]: 100%
- % KD and Mortality 6 h [3, 24]: 100%
- % KD and Mortality 24 h [3, 24]: 100%
- mortality at 50 mg/m2 [4, 7]: 100%
- mortality at 50 mg/m2 [4, 8]: 100%
- mortality at 50 mg/m2 [4, 9]: 100%
- mortality at 50 mg/m2 [4, 10]: 100%
- mortality at 50 mg/m2 [4, 11]: 100%
- mortality at 50 mg/m2 [4, 12]: 100%
- mortality at 50 mg/m2 [4, 13]: 100%

SMILES: N#Cc1nn(-c2c(Cl)cc(C(F)(F)F)cc2Cl)c(N)c1[S+]([O-])C(F)(F)F (stereo not drawn) [Fipronil (.01%)]
- Average % Mortality after 5 min [2, 25]: 0%
- Average % Mortality after 15 min [2, 25]: 0%
- Average % Mortality after 30 min [2, 25]: 0%
- Average % Mortality after 30 min [2, 26]: 0%
- Average % Mortality after 60 min [2, 25]: 0%
- Average % Mortality after 60 min [2, 26]: 0%
- Average % Mortality after 2 hr [2, 27]: 0%
- Average % Mortality after 2 hr [2, 28]: 0%
- Average % Mortality after 3 hr [2, 26]: 0%
- Average % Mortality after 4 hr [2, 29]: 47%
- Average % Mortality after 24 hr [2, 25]: 100%
- Average % Mortality after 24 hr [2, 26]: 100%

SMILES: CC1(C)[C@H](C(=O)O[C@H](C#N)c2cccc(Oc3ccccc3)c2)[C@@H]1C=C(Br)Br [deltamethrin (1%)]
- Average % Mortality after 10 min ([2]; 10 min, Table 27, aqueous deltamethrin/adjuvant): 9%
- Average % Mortality after 15 min [2, 30]: 33%
- Average % Mortality after 20 min ([2]; 20 min, Table 27, aqueous deltamethrin/adjuvant): 67%
- Average % Mortality after 30 min [2, 30]: 82%

SMILES: N#Cc1nn(-c2c(Cl)cc(C(F)(F)F)cc2Cl)c(N)c1[S+]([O-])C(F)(F)F (stereo not drawn) [Fipronil (.001%)]
- Average % Mortality after 5 min [2, 25]: 0%
- Average % Mortality after 5 min [2, 31]: 0%
- Average % Mortality after 15 min [2, 25]: 0%
- Average % Mortality after 15 min [2, 31]: 0%
- Average % Mortality after 30 min [2, 25]: 0%
- Average % Mortality after 30 min [2, 31]: 0%
- Average % Mortality after 30 min [2, 26]: 0%
- Average % Mortality after 60 min [2, 25]: 0%
- Average % Mortality after 60 min [2, 31]: 0%
- Average % Mortality after 60 min [2, 26]: 0%
- Average % Mortality after 2 hr [2, 27]: 0%
- Average % Mortality after 2 hr ([2]; 2 hr, Table 47, Trial 2, fipronil/Compound A in acetone): 0%
- Average % Mortality after 2 hr [2, 28]: 0%
- Average % Mortality after 3 hr [2, 26]: 3%
- Average % Mortality after 4 hr [2, 29]: 74%
- Average % Mortality after 4 hr ([2]; 4 hr, Table 47, Trial 2, fipronil/Compound A in acetone): 28%
- Average % Mortality after 24 hr [2, 25]: 100%
- Average % Mortality after 24 hr [2, 31]: 100%
- Average % Mortality after 24 hr [2, 26]: 100%

From US9028856B2, “Synergistic pesticide compositions” (priority 2008, dated 2015)
